What was measured:
[1] = biological target: T1, CsoR (Bacillus subtilis, UniProt O32222); assay: CsoR regulated in vitro transcription of 3WJdB (copper sensor); type: biochemical; conditions: for reactivity of the copper sensor against metals: FIG. 25A
T1 construct: 6xHis; made in house; host or cells: E. coli Rosetta 2(DE3)pLysS
T1 sequence (O32222 1-101): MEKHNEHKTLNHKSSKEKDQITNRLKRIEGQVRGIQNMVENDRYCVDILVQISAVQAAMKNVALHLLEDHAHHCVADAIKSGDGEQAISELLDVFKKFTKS
Text: (§1) Next, we sought to tune the sensitivity of the copper sensor to meet the EPA regulated limit of copper in drinking water (1.3 ppm). Without any tuning, the sensor detects 0.3 ppm of copper and above (FIG. 26a). To desensitize the sensor to respond near the EPA regulated limit of copper, we reasoned that excess CsoR could be added to the reactions to act as a copper chelator. […] To further implement this strategy of tuning the amount of transcription factors to shift the sensitivity of a sensor, we determined if the lead sensor can be sensitized by decreasing the amount of CadC dimer. When the concentration was decreased from 1.5 μM to 0.5 μM of CadC, we were able to shift the dose response curve to be more sensitive in order to detect tens of ppb of lead (FIG. 26b).

[2] = biological target: T2, CadC (Staphylococcus aureus, UniProt P20047); assay: CadC regulated in vitro transcription of 3WJdB (lead sensor); type: biochemical; conditions: CadC dimer decreased from 1.5 μM to 0.5 μM, FIG. 26b
T2 construct: 6xHis; made in house; host or cells: E. coli Rosetta 2(DE3)pLysS
Text: as §1

[3] = biological target: T3, AdcR (Streptococcus pneumoniae serotype 2, UniProt Q04I02); assay: adcO-regulated KB2 kleptamer circuit with AdcR; type: biochemical; conditions: unregulated 3WJdB template and adcO regulated KB2 template, FIG. 23
T3 construct: Giedroc Lab (Indiana University Bloomington), gift
Text: ATF ligand-mediated transcriptional repression can be inverted to ligand-mediated activation with RNA genetic circuitry. We next tested the kleptamer system with an ATF that is known to bind to its operator site in the presence of its cognate ligand and therefore cause ligand-mediated repression. AdcR is a MarR-family ATF and known to regulate genes encoding a high-affinity ABC uptake system for zinc and cell-surface zinc-binding pneumococcal histidine triad proteins.^36 Unlike the ATFs we tested previously, apo-AdcR is unbound to its operator site. Upon binding Zn(II), AdcR undergoes a conformational change that results in binding to the operator site. We placed an operator site recognized by AdcR (adcO) upstream of the KB2 kleptamer so that when zinc is present, the transcription of the KB2 kleptamer is repressed by the AdcR-zinc complex and the fluorescence-activating 3WJdB aptamer is produced.

[4] = biological target: T4, TetR (Escherichia coli, UniProt P04483); assay: TetR regulated in vitro transcription of 3WJdB, derepression by ligand; type: biochemical; conditions: 200 pmol of antibiotic, T7 RNAP, FIG. 7
T4 construct: 6xHis; made in house; host or cells: E. coli Rosetta 2(DE3)pLysS
Text: The family of tetracycline antibiotics are known ligands of the TetR repressor—they can induce an allosteric conformational change in TetR that results in a lowered affinity for the DNA operator sequence. Importantly, TetR repression of in vitro transcription is relieved if a cognate ligand is included immediately prior to measurement and coincident with the addition of T7 RNAP. […] This included anhydrotetracyline, tetracycline, oxytetracycline, chlortetracycline, and doxycycline. […] The 2 BP spacer (“GG”) promotes efficient transcription initiation with T7 RNAP.
Finally, to validate that the TetR regulated in vitro transcription reactions were specifically responsive to tetracycline antibiotics and that fluorescence was not due to nonspecific activity, we tested the TetR regulated in vitro transcription reaction of the 3WJdB output against macrolide antibiotics (FIG. 10A) as well as other common antibiotics used in biological research (FIG. 10B). None of the non-tetracycline antibiotics tested here is known to induce a conformational change in TetR. In all cases, strong repression of transcription was observed over the course of 2 hours except when tested against the positive control (anhydrotetracyline), or in the absence of the repressor (the unregulated reaction).

[5] = biological target: T4, TetR; assay: TetR regulated in vitro transcription of strand-invading RNA (InvadeR), DNA output gate; type: biochemical; conditions: FIG. 9
Text: We next transcribed a strand-invading RNA (“InvadeR”) to illustrate that an alternative RNA output can also be visualized in real-time. The InvadeR system works through toehold-mediated strand displacement of a DNA output gate. The DNA output gate consists of 2 annealed and complementary strands (“reporter” and “quencher,” boxed in FIG. 3A). The reporter strand consists of 24 nucleotides and a 3′ fluorophore, while the quencher strand contains 16 complementary nucleotides and a 5′ quencher. When annealed, the two strands leave an 8-nucleotide single-stranded “toehold” region on the 5′ end of the reporter strand. Spatial proximity of the 3′ fluorophore and 5′ quencher results in fluorescence quenching (the “OFF” state). For the InvadeR system described here, we utilized a 3′ terminal single isomer derivative of fluorescein (6-FAM) and a quencher strand with a 5′ terminal Iowa Black FQ quencher. […]
Upon transcription of the InvadeR sequence, which contains 24 nucleotides of perfect complementarity to the reporter strand, the RNA product hybridizes to the single-stranded toehold region of the DNA output gate. This initiates a strand invasion reaction that eventually displaces the quencher strand and alleviates fluorescence quenching (the “ON” state). […]

[6] = biological target: T4, TetR; assay: TetR regulated in vitro transcription of 3WJdB with T3 or SP6 RNAP; type: biochemical; conditions: unoptimized
Text: RIViTS are modular with respect to RNA polymerase. T7 RNA polymerase is a single-subunit RNA polymerase from the T7 bacteriophage. It is closely related to the T3 and SP6 bacteriophages and their RNA polymerases are homologous. We reasoned that we could swap the T7-specific promoter from the TetR regulated in vitro transcription of 3WJdB for an SP6 or T3-specific promoter, and maintain the ability to repress and induce transcription by using the appropriate RNAP. […] We suspect that further optimization of the transcription reaction conditions (e.g. buffer composition) will substantially improve the fold-change between the repressed and derepressed states.

[7] = tested on: MphR; assay: MphR regulated in vitro transcription of 3WJdB; type: biochemical; conditions: FIG. 24
Text: Similarly, we tested the orthogonality of the TetR, OtrR, CtcS, and MphR with their respective ligands (FIG. 17). In the absence of the ligands or inducers, there was a strong repression of transcription by the ATFs as expected. Only the tetracycline antibiotics tested were able to cause an allosteric conformational change in TetR, OtrR, and CtcS and restore fluorescence signal equivalent to micromolar amounts of soluble FITC, confirming the results presented in FIG. 10A. Similarly, MphR was responsive to macrolide antibiotics, but not to any tetracycline antibiotics tested.

[8] = biological target: SAR2349 (Staphylococcus aureus, UniProt Q6GEG9); conditions: FIG. 24
SAR2349, sequence (Q6GEG9 whole entry): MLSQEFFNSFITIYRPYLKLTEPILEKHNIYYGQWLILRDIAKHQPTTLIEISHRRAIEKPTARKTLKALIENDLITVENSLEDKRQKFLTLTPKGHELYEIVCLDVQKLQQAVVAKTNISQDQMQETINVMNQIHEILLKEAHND
Method: In Vitro Transcription. DFHBI-1T was purchased from either Lucerna or Tocris Bioscience and resuspended in DMSO at 40 mM. 45 nmol of DFHBI-1T was used in each transcription reaction involving the 3WJdB aptamer. Data from FIG. 1 was generated using a HiScribe T7 Quick High Yield RNA Synthesis Kit from New England BioLabs following the manufacturer's protocol and using 1 μg of template DNA (˜5.2 pmol). All other T7 RNA polymerase transcriptions contained T7 transcription buffer (40 mM Tris-HCl pH 8.0, 20 mM NaCl, 10 mM DTT, 8 mM MgCl2, 2 mM spermidine), 8 mM NTPs, and 2 μL T7 RNA polymerase. Amount of template, inducer, and transcription factor are noted below each figure. T3 and SP6 RNA polymerase were purchased from New England BioLabs, and transcriptions using those polymerases were performed according to the manufacturers protocol. All transcriptions were performed at 37° C. and polymerase was added immediately before measurement.
Reactions were monitored in real time by measuring on a BioTek Synergy H1 plate reader set to incubate at 37° C. For the 3WJdB output, an excitation wavelength of 472 nm and emission wavelength of 507 nm was used with measurements every 3 minutes. For the InvadeR system, excitation and emission wavelengths were set at 495 nm and 520 nm respectively and measurements were taken every minute.

T4 sequence (P04483 whole entry): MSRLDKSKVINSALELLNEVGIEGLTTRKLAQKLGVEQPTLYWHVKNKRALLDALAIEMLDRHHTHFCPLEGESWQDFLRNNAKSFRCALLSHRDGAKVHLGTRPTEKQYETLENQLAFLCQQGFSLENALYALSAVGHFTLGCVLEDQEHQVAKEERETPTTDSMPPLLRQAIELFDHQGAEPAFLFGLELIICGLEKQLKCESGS
T2 sequence (P20047 whole entry): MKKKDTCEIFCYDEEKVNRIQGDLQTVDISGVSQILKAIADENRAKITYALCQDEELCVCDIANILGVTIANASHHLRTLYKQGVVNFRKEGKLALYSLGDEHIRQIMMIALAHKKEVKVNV
T3 sequence (Q04I02 whole entry): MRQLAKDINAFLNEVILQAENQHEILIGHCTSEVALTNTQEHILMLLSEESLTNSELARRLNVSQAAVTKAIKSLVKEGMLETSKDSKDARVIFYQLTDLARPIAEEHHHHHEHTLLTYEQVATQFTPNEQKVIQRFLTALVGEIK

Structure (SMILES): [Cu+2] [copper]
- sensitivity of the sensor ([1]; CsoR tetramer increased to 7.5 μM, FIG. 26a): 1 ppm
- signal across ligand families ([1]; FIG. 24): strong signals from cognate ligands with minimal crosstalk
- reactivity of the copper sensor against metals [1]: can respond to copper as well as zinc
- concentration detected by the sensor ([1]; without any tuning, CsoR tetramer 2.5 μM, FIG. 26a): ≥ 0.3 ppm

Structure (SMILES): [Pb+2] [lead]
- concentration detected by the sensor [2]: tens of ppb

Structure (SMILES): [Zn+2] [zinc]
- fluorescence-activation on titration of ligand [3]: increased fluorescence-activation
- reactivity of the copper sensor against metals [1]: can respond to copper as well as zinc

Structure (SMILES): Cc1c2c(c(O)c3c(O)cccc13)C(=O)[C@]1(O)C(=O)C(C(N)=O)=C(O)[C@@H](N(C)C)[C@@H]1C2 [anhydrotetracycline]
- relief of TetR repression, aptamer-activated fluorescence [4]: restored aptamer-activated fluorescence close to or exceeding the level of fluorescence observed
- derepression/induction of TetR-repressed InvadeR system [5]: derepression/induction
- relief of TetR repression ([6]; SP6 RNAP, FIG. 11B): repression is partially relieved
- relief of TetR repression ([6]; T3 RNAP, FIG. 11A): repression is partially relieved

Structure (SMILES): CC[C@H]1OC(=O)[C@H](C)[C@@H](O[C@H]2C[C@@](C)(OC)[C@@H](O)[C@H](C)O2)[C@H](C)[C@@H](O[C@@H]2O[C@H](C)C[C@H](N(C)C)[C@H]2O)[C@](C)(O)C[C@@H](C)C(=O)[C@H](C)[C@@H](O)[C@]1(C)O [erythromycin]
- signal across ligand families [7]: strong signals from cognate ligands with minimal crosstalk

Structure (SMILES): O=C(O)c1ccccc1O [salicylate]
- signal across ligand families [8]: strong signals from cognate ligands with minimal crosstalk

— patent US12203144B2, “Analytes' detection using regulated in vitro transcription” (Northwestern University, priority 2018, dated 2025)
